Like-named read-outs stand apart in the source and are kept apart here.
Key:
[1] = target: p110δ/p85α (Homo sapiens (Human), UniProt O00329); assay: PI 3-Kinase (human) HTRF assay, p110δ/p85α; type: biochemical
[2] = target: p110α/p85α (Homo sapiens (Human), UniProt P42336); assay: PI 3-Kinase (human) HTRF assay, p110α/p85α; type: biochemical
[3] = tested on: tumor cells with a PI3Kα mutation (e.g., MDA-MB-361 and T47D); assay: Proliferation of tumor cells with PI3Kα mutation; type: cell-based; details: Homo sapiens
[4] = target: p110β/p85α (Homo sapiens (Human), UniProt P42338); assay: PI 3-Kinase (human) HTRF assay, p110β/p85α; type: biochemical
[5] = target: p110γ (Homo sapiens (Human), UniProt P48736); assay: PI 3-Kinase (human) HTRF assay, p110γ; type: biochemical
[6] = PC3, read-out: PC3 proliferation In Vitro IC50
[7] = T47D cells, read-out: T47D proliferation
[8] = in vitro, read-out: PI3K δ IC50
[9] = in vitro, read-out: PI3K α IC50
[10] = T47D cells, read-out: T47D proliferation IC50
[11] = in vitro, read-out: PI3K β IC50
[12] = in vitro, read-out: PI3K γ IC50

p110γ, sequence (P48736 whole entry): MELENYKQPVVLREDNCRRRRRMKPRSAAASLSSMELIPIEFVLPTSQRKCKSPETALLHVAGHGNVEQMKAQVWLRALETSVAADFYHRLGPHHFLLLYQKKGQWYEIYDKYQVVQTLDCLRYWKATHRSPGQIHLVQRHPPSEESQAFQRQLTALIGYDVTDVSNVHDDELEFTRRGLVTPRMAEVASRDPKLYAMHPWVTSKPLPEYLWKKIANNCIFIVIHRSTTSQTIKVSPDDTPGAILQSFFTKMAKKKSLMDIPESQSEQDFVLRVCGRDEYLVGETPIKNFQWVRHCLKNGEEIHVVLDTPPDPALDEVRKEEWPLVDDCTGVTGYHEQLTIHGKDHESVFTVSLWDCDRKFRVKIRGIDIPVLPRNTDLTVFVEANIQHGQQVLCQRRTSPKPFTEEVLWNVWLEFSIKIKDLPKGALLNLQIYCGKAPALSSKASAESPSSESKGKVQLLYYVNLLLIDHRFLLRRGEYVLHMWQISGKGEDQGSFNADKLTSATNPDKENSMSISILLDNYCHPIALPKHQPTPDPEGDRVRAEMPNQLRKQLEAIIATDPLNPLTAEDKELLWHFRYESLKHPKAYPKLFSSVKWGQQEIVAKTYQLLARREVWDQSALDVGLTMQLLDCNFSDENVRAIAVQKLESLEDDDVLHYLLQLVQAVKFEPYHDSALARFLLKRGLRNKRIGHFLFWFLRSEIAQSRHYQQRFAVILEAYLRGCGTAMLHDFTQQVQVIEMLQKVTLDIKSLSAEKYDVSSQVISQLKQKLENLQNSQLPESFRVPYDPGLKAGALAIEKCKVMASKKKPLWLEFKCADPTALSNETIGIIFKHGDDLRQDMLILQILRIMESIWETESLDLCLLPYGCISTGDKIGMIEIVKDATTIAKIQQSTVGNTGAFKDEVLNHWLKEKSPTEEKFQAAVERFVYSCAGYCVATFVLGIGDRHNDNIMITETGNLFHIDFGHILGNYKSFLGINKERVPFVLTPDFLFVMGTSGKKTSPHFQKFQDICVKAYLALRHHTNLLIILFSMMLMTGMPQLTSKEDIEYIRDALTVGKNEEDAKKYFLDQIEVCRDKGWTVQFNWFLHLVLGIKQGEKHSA
p110α/p85α, sequence (P42336 whole entry): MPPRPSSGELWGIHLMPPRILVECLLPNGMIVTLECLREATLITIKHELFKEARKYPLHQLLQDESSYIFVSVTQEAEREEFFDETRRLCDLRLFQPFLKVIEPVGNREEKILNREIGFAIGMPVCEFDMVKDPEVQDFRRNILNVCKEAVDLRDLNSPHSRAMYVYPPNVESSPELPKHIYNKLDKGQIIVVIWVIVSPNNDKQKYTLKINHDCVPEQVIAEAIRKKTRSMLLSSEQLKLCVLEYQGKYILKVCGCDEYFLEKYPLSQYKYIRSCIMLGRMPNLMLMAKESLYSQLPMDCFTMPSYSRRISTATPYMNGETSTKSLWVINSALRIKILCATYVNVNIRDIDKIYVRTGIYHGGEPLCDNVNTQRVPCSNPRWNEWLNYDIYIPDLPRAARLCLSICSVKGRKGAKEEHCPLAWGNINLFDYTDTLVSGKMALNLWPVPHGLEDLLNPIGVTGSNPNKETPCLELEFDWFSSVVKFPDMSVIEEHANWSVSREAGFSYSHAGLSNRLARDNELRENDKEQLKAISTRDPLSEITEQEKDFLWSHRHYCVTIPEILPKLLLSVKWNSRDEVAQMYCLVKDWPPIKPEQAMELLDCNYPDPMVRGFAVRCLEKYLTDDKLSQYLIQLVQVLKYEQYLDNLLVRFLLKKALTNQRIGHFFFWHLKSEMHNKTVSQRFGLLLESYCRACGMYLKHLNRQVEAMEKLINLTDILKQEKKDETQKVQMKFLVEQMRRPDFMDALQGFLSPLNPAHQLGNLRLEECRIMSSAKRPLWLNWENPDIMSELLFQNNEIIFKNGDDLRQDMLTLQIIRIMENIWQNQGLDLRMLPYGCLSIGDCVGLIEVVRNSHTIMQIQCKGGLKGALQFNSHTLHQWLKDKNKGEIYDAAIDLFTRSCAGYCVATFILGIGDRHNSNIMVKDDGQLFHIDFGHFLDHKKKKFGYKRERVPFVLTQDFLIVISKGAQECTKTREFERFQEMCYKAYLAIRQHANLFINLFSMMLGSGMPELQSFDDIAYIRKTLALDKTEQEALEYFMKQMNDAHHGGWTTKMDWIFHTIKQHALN
p110α/p85α, sequence (P27986 whole entry partner): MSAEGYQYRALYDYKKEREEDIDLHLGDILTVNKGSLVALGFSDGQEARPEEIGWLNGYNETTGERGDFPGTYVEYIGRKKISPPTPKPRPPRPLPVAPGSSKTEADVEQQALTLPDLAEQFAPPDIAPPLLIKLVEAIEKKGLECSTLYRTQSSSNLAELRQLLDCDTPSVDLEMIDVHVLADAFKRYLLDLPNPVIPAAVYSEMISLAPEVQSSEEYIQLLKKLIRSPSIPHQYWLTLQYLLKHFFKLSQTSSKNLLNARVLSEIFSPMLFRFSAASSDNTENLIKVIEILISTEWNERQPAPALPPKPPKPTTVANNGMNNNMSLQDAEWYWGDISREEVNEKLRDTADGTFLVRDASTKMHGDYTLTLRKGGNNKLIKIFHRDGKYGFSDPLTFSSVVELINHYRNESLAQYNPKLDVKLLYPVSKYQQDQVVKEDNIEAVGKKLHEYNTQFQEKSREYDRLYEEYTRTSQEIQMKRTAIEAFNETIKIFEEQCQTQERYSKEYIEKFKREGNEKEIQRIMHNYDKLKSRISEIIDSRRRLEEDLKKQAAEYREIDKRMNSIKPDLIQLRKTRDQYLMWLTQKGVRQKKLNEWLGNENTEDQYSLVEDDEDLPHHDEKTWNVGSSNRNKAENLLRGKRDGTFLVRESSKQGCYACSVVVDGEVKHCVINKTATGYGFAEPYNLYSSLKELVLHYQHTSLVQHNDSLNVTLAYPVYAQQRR
p110δ/p85α, sequence (O00329 whole entry): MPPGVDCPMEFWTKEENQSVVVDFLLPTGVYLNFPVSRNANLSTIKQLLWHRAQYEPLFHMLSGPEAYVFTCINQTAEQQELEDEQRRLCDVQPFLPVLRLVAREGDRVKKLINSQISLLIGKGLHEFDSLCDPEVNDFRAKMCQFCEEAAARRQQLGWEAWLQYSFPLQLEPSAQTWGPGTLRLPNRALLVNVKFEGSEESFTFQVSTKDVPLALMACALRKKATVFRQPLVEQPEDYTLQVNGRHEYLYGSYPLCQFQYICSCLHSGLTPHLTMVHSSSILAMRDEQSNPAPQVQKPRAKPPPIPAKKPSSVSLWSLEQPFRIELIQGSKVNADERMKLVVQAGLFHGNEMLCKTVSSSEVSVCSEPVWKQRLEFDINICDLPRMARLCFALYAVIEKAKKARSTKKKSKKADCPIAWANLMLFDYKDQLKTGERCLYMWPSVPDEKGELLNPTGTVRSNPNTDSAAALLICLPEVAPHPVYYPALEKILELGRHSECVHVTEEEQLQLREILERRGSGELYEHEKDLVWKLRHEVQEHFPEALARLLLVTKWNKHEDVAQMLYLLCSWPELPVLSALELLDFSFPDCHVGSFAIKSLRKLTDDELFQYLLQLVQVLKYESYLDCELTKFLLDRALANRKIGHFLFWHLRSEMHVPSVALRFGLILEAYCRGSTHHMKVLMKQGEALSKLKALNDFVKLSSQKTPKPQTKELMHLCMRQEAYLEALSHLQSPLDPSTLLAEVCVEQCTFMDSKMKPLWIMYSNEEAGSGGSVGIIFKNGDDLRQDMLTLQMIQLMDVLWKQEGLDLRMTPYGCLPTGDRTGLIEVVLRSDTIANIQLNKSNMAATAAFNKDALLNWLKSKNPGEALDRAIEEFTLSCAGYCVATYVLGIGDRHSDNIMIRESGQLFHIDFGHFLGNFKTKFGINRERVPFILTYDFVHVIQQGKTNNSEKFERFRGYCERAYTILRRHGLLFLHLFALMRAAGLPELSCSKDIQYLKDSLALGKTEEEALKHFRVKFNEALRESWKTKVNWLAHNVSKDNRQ
p110δ/p85α, sequence (P27986 whole entry partner): as the sequence (P27986 whole entry partner) above
p110β/p85α, sequence (P42338 whole entry): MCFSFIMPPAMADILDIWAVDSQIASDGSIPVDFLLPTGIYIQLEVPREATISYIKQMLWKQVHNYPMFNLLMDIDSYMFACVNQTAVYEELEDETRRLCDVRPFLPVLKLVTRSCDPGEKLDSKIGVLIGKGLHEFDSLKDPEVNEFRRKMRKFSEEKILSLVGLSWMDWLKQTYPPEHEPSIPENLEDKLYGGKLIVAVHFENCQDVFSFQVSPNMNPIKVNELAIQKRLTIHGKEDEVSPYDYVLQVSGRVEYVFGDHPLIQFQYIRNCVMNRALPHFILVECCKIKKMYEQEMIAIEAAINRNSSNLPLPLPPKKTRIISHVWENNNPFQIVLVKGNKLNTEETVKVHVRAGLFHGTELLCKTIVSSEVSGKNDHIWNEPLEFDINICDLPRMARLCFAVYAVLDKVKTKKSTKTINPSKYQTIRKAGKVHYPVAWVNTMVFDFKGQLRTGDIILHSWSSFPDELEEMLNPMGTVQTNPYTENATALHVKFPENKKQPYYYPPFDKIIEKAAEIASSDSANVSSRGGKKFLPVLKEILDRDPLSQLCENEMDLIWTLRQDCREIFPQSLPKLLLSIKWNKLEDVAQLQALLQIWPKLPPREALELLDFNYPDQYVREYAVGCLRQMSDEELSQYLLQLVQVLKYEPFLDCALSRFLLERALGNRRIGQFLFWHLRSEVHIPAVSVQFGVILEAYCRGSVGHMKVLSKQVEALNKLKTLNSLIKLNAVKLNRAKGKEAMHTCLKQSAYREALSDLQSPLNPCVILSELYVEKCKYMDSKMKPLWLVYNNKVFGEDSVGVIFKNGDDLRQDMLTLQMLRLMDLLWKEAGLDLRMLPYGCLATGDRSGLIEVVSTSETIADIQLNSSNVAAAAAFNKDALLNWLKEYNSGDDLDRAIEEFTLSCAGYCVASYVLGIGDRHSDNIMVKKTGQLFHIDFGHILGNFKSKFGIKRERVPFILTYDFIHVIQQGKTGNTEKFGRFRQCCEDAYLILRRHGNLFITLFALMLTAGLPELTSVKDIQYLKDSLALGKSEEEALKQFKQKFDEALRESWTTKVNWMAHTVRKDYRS
p110β/p85α, sequence (P27986 whole entry partner): as the sequence (P27986 whole entry partner) above

SMILES | IC50 ([1]; read-out: PI3K δ IC50) [nM] | IC50 ([2]; read-out: PI3K α IC50) [nM] | IC50 [3, 7] [nM] | IC50 ([4]; read-out: PI3K β IC50) [nM] | IC50 ([5]; read-out: PI3K γ IC50) [nM] | IC50 [1, 8] [nM] | IC50 [2, 9] [nM] | IC50 [3, 10] [nM] | IC50 [4, 11] [nM] | IC50 [5, 12] [nM] | also measured
O=C(c1cnc2ccc(-c3cnc(Cl)c(NS(=O)(=O)c4ccccc4F)c3)cn12)N1CCOCC1 [compound 452] | – | – | – | – | – | – | – | – | – | – | IC50 ([1]; read-out: PI3K δ In Vitro IC50): < 100 nM; IC50 ([2]; read-out: PI3K α In Vitro IC50): < 100 nM; IC50 [3, 6]: < 10000 nM; IC50 ([4]; read-out: PI3K β In Vitro IC50): < 1000 nM; IC50 ([5]; read-out: PI3K γ In Vitro IC50): < 100 nM
CC(=O)N1CCC(N(C)c2ncnc3ccc(-c4ccc5oc(N)nc5c4)cc23)CC1 [compound 137] | < 1000 | < 100 | < 1000 | < 1000 | < 1000 | – | – | – | – | – | –
Cc1cn(C2CCN(c3cnc4ccc(-c5ccc6oc(N)nc6c5)cc4n3)CC2)cn1 [compound 338] | – | – | – | – | – | < 10000 | < 100 | < 10000 | < 10000 | < 10000 | –
Nc1nc2cc(-c3ccc4ncc(C(=O)N5CC(O)C5)n4c3)ccc2o1 [compound 200] | – | – | – | – | – | < 10000 | < 100 | < 10000 | < 10000 | < 100 | –
Nc1nc2cc(-c3ccc4ncc(NC5CCOCC5)nc4c3)ccc2o1 [compound 96] | < 1000 | < 100 | < 1000 | < 10000 | < 100 | – | – | – | – | – | –
COc1ncc(-c2ccc3ncn(C4CCN(C(C)C)CC4)c(=O)c3c2)cc1NS(=O)(=O)c1ccccc1 [compound 522] | – | – | – | – | – | – | – | – | – | – | IC50 ([1]; read-out: PI3K δ In Vitro IC50): < 100 nM; IC50 ([2]; read-out: PI3K α In Vitro IC50): < 100 nM; IC50 [3, 6]: < 1000 nM; IC50 ([4]; read-out: PI3K β In Vitro IC50): < 100 nM; IC50 ([5]; read-out: PI3K γ In Vitro IC50): < 100 nM
Nc1nc2cc(-c3ccc4ncc(C(=O)N5CC[C@H](n6cccn6)C5)n4c3)ccc2o1 [compound 478] | – | – | – | – | – | – | – | – | – | – | IC50 ([1]; read-out: PI3K δ In Vitro IC50): < 1000 nM; IC50 ([2]; read-out: PI3K α In Vitro IC50): < 100 nM; IC50 [3, 6]: < 1000 nM; IC50 ([4]; read-out: PI3K β In Vitro IC50): < 10000 nM; IC50 ([5]; read-out: PI3K γ In Vitro IC50): < 1000 nM
Nc1nc2cc(-c3ccc4ncc(N5CCC(O)C5)nc4c3)ccc2o1 (stereo not drawn) [compound 209] | – | – | – | – | – | < 10000 | < 100 | < 10000 | < 1000 | < 100 | –
Nc1nc2cc(-c3ccc4ncc(N5CCN(C(=O)C6(N)CCC6)CC5)nc4c3)ccc2o1 [compound 286] | – | – | – | – | – | < 1000 | < 100 | < 1000 | < 1000 | < 100 | –
Nc1nc2cc(-c3ccc4ncc(N5CCC(N6CCOCC6)CC5)nc4c3)ccc2o1 [compound 171] | < 1000 | < 100 | < 1000 | < 1000 | < 1000 | – | – | – | – | – | –
Nc1nc2cc(-c3ccc4ncc(N5CC(N6CCS(=O)(=O)CC6)C5)nc4c3)ccc2o1 [compound 334] | – | – | – | – | – | < 10000 | < 100 | < 1000 | < 10000 | < 10000 | –
CN1CCC(Nc2ncnc3ccc(-c4ccc5oc(N)nc5c4)nc23)CC1 [compound 212] | – | – | – | – | – | < 1000 | < 100 | < 1000 | < 1000 | < 1000 | –
CC1(C)CN(C2CN(C(=O)c3cnc4ccc(-c5ccc6oc(N)nc6c5)cn34)C2)CCN1 [compound 515] | – | – | – | – | – | – | – | – | – | – | IC50 ([1]; read-out: PI3K δ In Vitro IC50): < 100 nM; IC50 ([2]; read-out: PI3K α In Vitro IC50): < 100 nM; IC50 [3, 6]: < 1000 nM; IC50 ([4]; read-out: PI3K β In Vitro IC50): < 10000 nM; IC50 ([5]; read-out: PI3K γ In Vitro IC50): < 1000 nM
CC(C)N1CCN(c2cnc3ccc(-c4ccc5oc(N)nc5c4)cc3n2)CC1 [compound 84] | < 1000 | < 100 | < 10000 | < 100 | < 100 | – | – | – | – | – | –
Nc1nc2cc(-c3ccc4ncc(C(=O)N5CC(N6CC[C@@H](O)C6)C5)n4c3)ccc2o1 [compound 470] | – | – | – | – | – | – | – | – | – | – | IC50 ([1]; read-out: PI3K δ In Vitro IC50): < 10000 nM; IC50 ([2]; read-out: PI3K α In Vitro IC50): < 100 nM; IC50 [3, 6]: < 10000 nM; IC50 ([4]; read-out: PI3K β In Vitro IC50): < 10000 nM; IC50 ([5]; read-out: PI3K γ In Vitro IC50): < 1000 nM
CS(=O)(=O)CCN1CCN(c2cnc3ccc(-c4ccc5oc(N)nc5c4)cc3n2)CC1 [compound 90] | < 10000 | < 100 | < 1000 | < 1000 | < 1000 | – | – | – | – | – | –
NC(=O)[C@H]1CCCN1C(=O)C1CN(c2cnc3ccc(-c4ccc5oc(N)nc5c4)cc3n2)C1 [compound 284] | – | – | – | – | – | < 10000 | < 100 | < 10000 | < 10000 | < 1000 | –
CC(N)C(=O)N1CCN(c2cnc3ccc(-c4ccc5oc(N)nc5c4)cc3n2)CC1 (stereo not drawn) [compound 134] | < 1000 | < 100 | < 1000 | < 1000 | < 10000 | – | – | – | – | – | –

Source: patent US11547697B2, “Heterocyclic compounds and uses thereof” (MILLENNIUM PHARMACEUTICALS, INC., priority 2009, dated 2023)
